Data from US20250228835A1, “PYRIDINYLOXYPYRIDINES AND RELATED COMPOUNDS AND THEIR USE IN TREATING MEDICAL CONDITIONS” (Rectify Pharmaceuticals, Inc., priority 2024, published 2025).

What was measured:
[1] = molecular target: T1, ABCB4 WT (Homo sapiens, UniProt P21439); assay: ABCB4 WT assay: HiBit protein expression; format: cell-based; conditions: HEK-293 cells stably expressing HiBit-tagged ABCB4 WT; 24 h treatment; top concentration 30 μM; read-out: ABCB4 WT EC50, Emax
T1 construct: expressed in transfected cells
T1 sequence (P21439 whole entry): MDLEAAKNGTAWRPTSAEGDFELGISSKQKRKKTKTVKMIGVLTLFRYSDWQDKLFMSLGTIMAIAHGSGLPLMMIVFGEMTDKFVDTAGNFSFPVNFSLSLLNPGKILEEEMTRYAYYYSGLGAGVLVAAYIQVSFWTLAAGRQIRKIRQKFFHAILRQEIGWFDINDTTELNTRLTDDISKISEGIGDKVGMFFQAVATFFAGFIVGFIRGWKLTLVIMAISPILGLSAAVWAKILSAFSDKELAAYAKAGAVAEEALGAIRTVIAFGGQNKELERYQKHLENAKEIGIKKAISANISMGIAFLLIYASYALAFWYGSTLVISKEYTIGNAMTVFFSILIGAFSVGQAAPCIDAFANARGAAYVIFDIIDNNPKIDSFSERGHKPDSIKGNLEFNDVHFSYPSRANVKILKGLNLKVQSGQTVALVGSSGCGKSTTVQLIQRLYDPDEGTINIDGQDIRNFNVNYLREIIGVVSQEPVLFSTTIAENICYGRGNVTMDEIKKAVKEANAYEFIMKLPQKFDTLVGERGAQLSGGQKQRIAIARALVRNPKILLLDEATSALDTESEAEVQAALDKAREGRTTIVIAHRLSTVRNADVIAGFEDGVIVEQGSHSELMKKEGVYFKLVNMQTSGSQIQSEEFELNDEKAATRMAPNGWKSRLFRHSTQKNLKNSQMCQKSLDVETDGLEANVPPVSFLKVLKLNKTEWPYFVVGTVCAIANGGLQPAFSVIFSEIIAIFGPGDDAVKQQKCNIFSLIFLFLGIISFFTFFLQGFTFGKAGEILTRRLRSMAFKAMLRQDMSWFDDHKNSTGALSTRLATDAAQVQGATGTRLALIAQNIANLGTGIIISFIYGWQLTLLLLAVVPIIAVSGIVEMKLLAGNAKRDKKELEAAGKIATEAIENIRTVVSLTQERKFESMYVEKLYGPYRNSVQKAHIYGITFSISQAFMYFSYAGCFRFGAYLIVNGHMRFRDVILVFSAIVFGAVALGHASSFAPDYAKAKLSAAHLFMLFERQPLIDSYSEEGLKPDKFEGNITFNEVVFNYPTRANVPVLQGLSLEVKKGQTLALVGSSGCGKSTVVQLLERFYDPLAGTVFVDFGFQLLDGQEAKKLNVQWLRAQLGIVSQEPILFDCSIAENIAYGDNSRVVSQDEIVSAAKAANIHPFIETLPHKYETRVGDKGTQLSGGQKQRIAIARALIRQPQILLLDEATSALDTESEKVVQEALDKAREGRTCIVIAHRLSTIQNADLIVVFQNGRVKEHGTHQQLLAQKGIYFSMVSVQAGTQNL
Excerpt: To assess activity against ABCB4, compounds were screened in an assay measuring protein expression, using cells transfected with cDNA encoding HiBit-tagged ABCB4 wild-type.
Described here is an assay for measuring the expression of the wild type of human ABCB4 (henceforth referred to as ABCB4 WT) and the use of this assay to measure the efficacy of compounds to increase the expression of ABCB4 WT. The assay was designed to characterize the efficacy and potency of compounds to increase the expression of ABCB4 WT by calculating an Emax and EC50 value. HEK-293 cells stably expressing ABCB4 WT (HEK-293/ABCB4 WT) were used for this assay and were maintained at 37° C. (5% CO2, humidified) in Dulbecco's Modified Eagle Medium (DMEM, Gibco product #12100) supplemented with 10% fetal bovine serum (Biosera product #FB-1058/500), 1% PenStrep (HDB product #15140-122), and 0.5 mg/mL puromycin (Gibco product #A11138-03). For the assay, the HEK-293/ABCB4 WT cells were seeded in white/opaque 384-well plates (Corning product #3570) at 10,000 cells/well in 20 μl growth medium and allowed to settle for 4 hours at 37° C. (5% CO2, humidified). Compound serial dilutions are prepared in DMSO as three hundred times (333×) the final concentration and using a dilution factor of 3 using Bravo (Agilent). After the four-hour incubation period, 60 nL of DMSO solutions are transferred to the assay plate.
(§1) Dose response curves include eleven doses with the top final concentration at 30 μM in 0.3% DMSO. Liquid handling is performed with ECHO 550 Acoustic Liquid Handler (Labcyte). After addition of compound treatment, cells are incubated for 24 hours at 37° C. (5% CO2, humidified). After the 24-hour treatment, plates are allowed to equilibrate to room temperature for 10 minutes. Using Dragonfly Automated Liquid Handler (TTP LabTech), 20 μl of HiBit lytic assay reagent (Promega, product #N3040), which is prepared according to manufacturer's instructions, is added to each well. The plates are rotated at room temperature for 2 minutes and incubated for 1 hour at 25° C. before luminescent signal is acquired using an EnVision Multimode Plate Reader (PerkinElmer).
Results are presented below in Table 5 for ABCB4 WT.

[2] = molecular target: T2, ABCA4 P1380L (Homo sapiens, UniProt P78363, P1380L); assay: A4 correction dose-response assay: ABCA4 P1380L HiBit protein expression; format: cell-based; conditions: HEK-293 cells stably expressing HiBit-tagged ABCA4 P1380L; 24 h treatment; top concentration 30 μM; read-out: ABCA4 P1380L EC50, Emax
T2 construct: expressed in transfected cells
T2 sequence (P78363 whole entry P1380L): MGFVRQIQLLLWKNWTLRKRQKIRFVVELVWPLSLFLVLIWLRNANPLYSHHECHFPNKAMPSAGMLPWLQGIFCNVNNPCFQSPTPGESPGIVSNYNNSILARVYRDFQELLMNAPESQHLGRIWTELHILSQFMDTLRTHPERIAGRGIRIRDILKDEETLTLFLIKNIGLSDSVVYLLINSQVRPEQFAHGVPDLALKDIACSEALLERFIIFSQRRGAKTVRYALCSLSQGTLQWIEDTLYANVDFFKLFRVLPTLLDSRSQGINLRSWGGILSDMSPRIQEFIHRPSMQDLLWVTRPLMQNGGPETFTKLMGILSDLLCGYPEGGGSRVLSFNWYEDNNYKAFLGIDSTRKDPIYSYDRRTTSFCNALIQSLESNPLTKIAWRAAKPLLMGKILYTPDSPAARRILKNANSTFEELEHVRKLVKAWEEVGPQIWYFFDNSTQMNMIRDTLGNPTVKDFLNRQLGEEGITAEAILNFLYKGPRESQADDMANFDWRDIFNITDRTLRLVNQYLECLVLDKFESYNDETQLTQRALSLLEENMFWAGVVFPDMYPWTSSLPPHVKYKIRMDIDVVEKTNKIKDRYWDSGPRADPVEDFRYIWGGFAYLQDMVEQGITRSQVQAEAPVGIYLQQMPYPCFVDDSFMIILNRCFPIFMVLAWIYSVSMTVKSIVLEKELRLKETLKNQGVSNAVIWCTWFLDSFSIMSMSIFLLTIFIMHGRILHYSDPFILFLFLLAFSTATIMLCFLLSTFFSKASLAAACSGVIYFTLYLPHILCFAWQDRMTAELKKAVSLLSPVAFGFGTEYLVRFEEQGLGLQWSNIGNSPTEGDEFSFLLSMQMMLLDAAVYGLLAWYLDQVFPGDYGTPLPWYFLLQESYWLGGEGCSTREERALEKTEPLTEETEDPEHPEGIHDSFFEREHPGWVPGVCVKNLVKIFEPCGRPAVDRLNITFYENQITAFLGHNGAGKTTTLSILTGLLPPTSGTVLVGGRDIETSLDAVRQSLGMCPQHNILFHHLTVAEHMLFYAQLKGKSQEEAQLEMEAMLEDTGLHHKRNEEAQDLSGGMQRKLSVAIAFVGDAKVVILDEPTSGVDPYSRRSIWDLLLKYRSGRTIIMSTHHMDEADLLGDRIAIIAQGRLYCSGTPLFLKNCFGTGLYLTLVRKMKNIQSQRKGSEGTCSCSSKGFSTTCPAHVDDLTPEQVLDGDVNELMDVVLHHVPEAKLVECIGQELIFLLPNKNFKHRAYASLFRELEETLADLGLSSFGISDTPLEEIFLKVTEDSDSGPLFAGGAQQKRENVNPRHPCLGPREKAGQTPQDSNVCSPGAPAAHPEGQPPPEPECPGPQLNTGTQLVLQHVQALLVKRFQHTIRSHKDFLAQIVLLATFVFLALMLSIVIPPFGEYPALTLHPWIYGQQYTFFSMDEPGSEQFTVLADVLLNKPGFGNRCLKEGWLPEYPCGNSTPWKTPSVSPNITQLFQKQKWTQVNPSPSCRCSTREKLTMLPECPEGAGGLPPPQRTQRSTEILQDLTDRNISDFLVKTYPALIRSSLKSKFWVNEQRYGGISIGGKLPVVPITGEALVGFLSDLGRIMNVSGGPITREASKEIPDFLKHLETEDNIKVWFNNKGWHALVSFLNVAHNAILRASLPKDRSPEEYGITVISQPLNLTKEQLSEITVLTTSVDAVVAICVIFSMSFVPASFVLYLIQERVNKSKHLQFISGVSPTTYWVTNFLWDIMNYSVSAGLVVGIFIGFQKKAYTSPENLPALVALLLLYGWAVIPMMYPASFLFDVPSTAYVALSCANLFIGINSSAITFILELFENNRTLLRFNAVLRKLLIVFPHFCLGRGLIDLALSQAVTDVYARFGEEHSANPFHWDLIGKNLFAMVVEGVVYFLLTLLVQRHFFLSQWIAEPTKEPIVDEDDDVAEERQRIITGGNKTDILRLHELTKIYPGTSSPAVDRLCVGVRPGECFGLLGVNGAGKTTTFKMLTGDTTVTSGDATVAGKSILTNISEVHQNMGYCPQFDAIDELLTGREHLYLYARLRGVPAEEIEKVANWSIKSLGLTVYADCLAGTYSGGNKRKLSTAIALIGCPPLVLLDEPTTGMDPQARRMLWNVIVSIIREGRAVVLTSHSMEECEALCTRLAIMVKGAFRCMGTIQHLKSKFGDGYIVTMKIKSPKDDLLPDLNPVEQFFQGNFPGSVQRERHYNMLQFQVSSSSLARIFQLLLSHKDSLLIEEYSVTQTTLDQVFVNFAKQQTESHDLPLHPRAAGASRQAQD
Method: Exemplary compounds were evaluated in an A4 correction dose-response assay.
To assess activity against ABCA4 P1380L, the compounds were screened in an assay measuring protein expression, using cells transfected with cDNA encoding HiBit-tagged ABCA4 P1380L. Here we describe an assay for measuring the expression of the P1380L variant of human ABCA4 (henceforth referred to as ABCA4 P1380L) and the use of this assay to measure the efficacy of compounds to increase the expression of ABCA4 P1380L. The assay was designed to characterize the efficacy and potency of compounds to increase the expression of ABCA4 P1380L by calculating an Emax and EC50 value. […] (5% CO2, humidified). […] After the four-hour incubation period, 60 nL of DMSO solutions are transferred to the assay plate.
as §1

EC50 [1] [nM]	EC50 [2] [nM]	Structure (SMILES)
< 1000	< 1000	Cc1cc(C2CC2)nc(C)c1Oc1nc(-c2cncc(C#N)c2)ccc1NS(C)(=O)=O [Compound I-4]
< 1000	< 1000	Cc1cc(C)c(Oc2nc(-c3ccc(C#N)nc3)ccc2NS(C)(=O)=O)c(C)n1 [Compound I-7]
≥ 25000	> 25000	Cc1cc(C)c(Oc2nc(-c3cncc(Cl)c3)ncc2NS(C)(=O)=O)c(C)c1 [Compound I-9]
1000 to 10000	> 25000	Cc1cc(C)c(Oc2nc(-c3cncc(Cl)c3)ccc2S(=O)(=O)N2CCCC2)c(C)c1 [Compound I-96]
< 25000	> 25000	Cc1cc(C)c(Oc2nc(-c3cncc(Cl)c3)ccc2S(=O)(=O)NC2CC2)c(C)c1 [Compound I-98]
≥ 25000	10000 to 25000	Cc1cc(C)c(Oc2nc(-c3cncc(Cl)c3)ccc2S(N)(=O)=O)c(C)c1 [Compound I-100]
≥ 25000	1000 to 10000	Cc1cc(C)c(Oc2nc(-c3cccc(Cl)c3)ccc2S(=O)(=O)NC2CCOC2)c(C)c1 (stereo not shown) [Compound I-101]
1000 to 10000	1000 to 10000	Cc1cc(C)c(Oc2nc(-c3cncc(Cl)c3)ccc2S(C)(=O)=O)c(C)c1 [Compound I-104]
< 1000	> 25000	Cc1cc(C(F)F)nc(C2CC2)c1Oc1nc(-c2cncc(C#N)c2)ccc1N(C)S(=O)(=O)C1CC1 [Compound I-134]
< 1000	> 25000	Cc1cc(C(F)F)nc(C2CC2)c1Oc1nc(-c2cncc(C#N)c2)ccc1N(C)S(C)(=O)=O [Compound I-135]
< 1000	< 1000	Cc1cc(C(F)F)nc(C2CC2)c1Oc1nc(-c2cncc(C#N)c2)ccc1NS(C)(=O)=O [Compound I-137]
≥ 25000	> 25000	Cc1nc(C(F)(F)F)nc(C2CC2)c1Oc1nc(-c2cncc(C#N)c2)ccc1N(C)S(C)(=O)=O [Compound I-142]
< 1000	< 1000	Cc1nc(C(F)(F)F)nc(C2CC2)c1Oc1nc(-c2cncc(C#N)c2)ccc1NS(C)(=O)=O [Compound I-145]
< 1000	< 1000	CCS(=O)(=O)Nc1ccc(-c2cncc(C#N)c2)nc1Oc1c(C)cc(C(F)(F)F)nc1C1CC1 [Compound I-152]
< 25000	< 25000	Cc1nc(C(F)(F)F)cc(C2CC2)c1Oc1nc(-c2cncc(C#N)c2)ccc1N(C)S(C)(=O)=O [Compound I-154]
< 1000	< 25000	Cc1nc(N2CC(C#N)C2)nc(C)c1Oc1nc(-c2cncc(C#N)c2)ccc1NS(C)(=O)=O [Compound I-159]
< 25000	> 25000	Cc1nc(N2CC3(COC3)C2)nc(C)c1Oc1nc(-c2cncc(C#N)c2)ccc1NS(C)(=O)=O [Compound I-160]
≥ 25000	< 1000	Cc1nc(C2CC2)cc(C2CC2)c1Oc1nc(-c2cncc(C#N)c2)ccc1NS(C)(=O)=O [Compound I-162]

The next lines start with the compound.

Structure (SMILES)	EC50 [1] [nM]	EC50 [2] [nM]
Cc1cc(C)c(Oc2nc(-c3cncc(C#N)c3)ccc2NS(C)(=O)=O)c(C)n1 [Compound I-5]	< 1000	< 1000
Cc1cc(C)c(Oc2nc(-c3ccc(C#N)nc3C)ccc2NS(C)(=O)=O)c(C)c1 [Compound I-6]	≥ 25000	10000 to 25000
Cc1cc(C)c(Oc2nc(-c3cnc(C#N)c(Cl)c3)ccc2NS(C)(=O)=O)c(C)n1 [Compound I-8]	< 1000	< 1000
Cc1cc(C)c(Oc2nc(-c3cncc(C#N)c3)ncc2NS(C)(=O)=O)c(C)c1 [Compound I-10]	≥ 25000	< 1000
CNS(=O)(=O)c1ccc(-c2cncc(Cl)c2)nc1Oc1c(C)cc(C)cc1C [Compound I-95]	< 1000	< 1000
Cc1cc(C)c(Oc2nc(-c3cncc(Cl)c3)ccc2S(=O)(=O)N(C)C)c(C)c1 [Compound I-97]	1000 to 10000	> 25000
Cc1cc(C)c(Oc2nc(-c3cncc(Cl)c3)ccc2S(=O)(=O)NC(C)(C)C)c(C)c1 [Compound I-99]	≥ 25000	> 25000
Cc1cc(C)c(Oc2nc(-c3cccc(Cl)c3)ccc2S(N)(=O)=O)c(C)c1 [Compound I-102]	≥ 25000	< 1000
Cc1cc(C)c(Oc2nc(-c3cncc(Cl)c3)ccc2S(C)(=N)=O)c(C)c1 (stereo not shown) [Compound I-103]	< 1000	1000 to 10000
Cc1cc(C(F)(F)F)nc(C2CC2)c1Oc1nc(-c2cncc(C#N)c2)ccc1S(=O)(=O)NC1CC1 [Compound I-133]	1000 to 10000	< 1000
Cc1cc(C)c(Oc2nc(-c3cncc(C#N)c3)ccc2N(C)S(=O)(=O)c2cccnc2)c(C2CC2)n1 [Compound I-136]	< 1000	1000 to 10000
CS(=O)(=O)Nc1ccc(-c2cncc(C#N)c2)nc1Oc1c(C2CC2)nc(C(F)(F)F)nc1C1CC1 [Compound I-138]	< 1000	< 1000
Cc1cc(C(F)(F)F)nc(C2CC2)c1Oc1nc(-c2cncc(C#N)c2)ccc1N(C)S(=O)(=O)C1CC1 [Compound I-139]	< 1000	> 25000
Cc1cc(C(F)(F)F)nc(C2CC2)c1Oc1nc(-c2cncc(C#N)c2)ccc1NS(=O)(=O)C1CC1 [Compound I-140]	< 1000	< 1000
Cc1cc(C(F)(F)F)nc(C2CC2)c1Oc1nc(-c2cncc(C#N)c2)ccc1NS(=O)(=O)C(C)C [Compound I-141]	< 1000	< 1000
Cc1nc(C2COC2)nc(C2CC2)c1Oc1nc(-c2cncc(C#N)c2)ccc1NS(C)(=O)=O [Compound I-143]	< 1000	< 1000
Cc1nc(C(F)F)nc(C2CC2)c1Oc1nc(-c2cncc(C#N)c2)ccc1NS(C)(=O)=O [Compound I-144]	< 1000	< 1000
Cc1cc(C2CC2)nc(C2CC2)c1Oc1nc(-c2cncc(C#N)c2)ccc1N(C)S(C)(=O)=O [Compound I-146]	≥ 25000	1000 to 10000
Cc1cc(C)c(Oc2nc(-c3cncc(C#N)c3)ccc2NS(=O)(=O)c2cccnc2)c(C2CC2)n1 [Compound I-147]	< 25000	< 1000
CCS(=O)(=O)N(C)c1ccc(-c2cncc(C#N)c2)nc1Oc1c(C)cc(C(F)(F)F)nc1C1CC1 [Compound I-148]	< 1000	< 1000
Cc1nc(C(F)(F)F)nc(C2CC2)c1Oc1nc(-c2cncc(Cl)c2)ccc1N(C)S(C)(=O)=O [Compound I-149]	≥ 25000	> 25000
Cc1nc(C2CC2)nc(C2CC2)c1Oc1nc(-c2cncc(C#N)c2)ccc1NS(C)(=O)=O [Compound I-150]	< 1000	< 1000
Cc1nc(C(F)(F)F)nc(C2CC2)c1Oc1nc(-c2cncc(Cl)c2)ccc1NS(C)(=O)=O [Compound I-151]	< 1000	< 1000
Cc1cc(C(F)(F)F)nc(C2CC2)c1Oc1nc(-c2cncc(Cl)c2)ccc1N(C)S(C)(=O)=O [Compound I-153]	≥ 25000	> 25000
Cc1nc(C(F)(F)F)cc(C2CC2)c1Oc1nc(-c2cncc(C#N)c2)ccc1NS(C)(=O)=O [Compound I-155]	< 1000	< 1000
Cc1cc(C(F)(F)F)nc(C2CC2)c1Oc1nc(-c2cncc(C#N)c2)ccc1N(C)S(C)(=O)=O [Compound I-156]	≥ 25000	< 25000
Cc1nc(C)c(Oc2nc(-c3cncc(C#N)c3)ccc2N(C)S(C)(=O)=O)c(C2CC2)n1 [Compound I-157]	< 25000	> 25000
Cc1cc(C(F)(F)F)nc(C2CC2)c1Oc1nc(-c2cncc(Cl)c2)ccc1NS(C)(=O)=O [Compound I-158]	< 1000	< 1000
Cc1cc(C2CC2)nc(C2CC2)c1Oc1nc(-c2cncc(C#N)c2)ccc1NS(C)(=O)=O [Compound I-161]	< 1000	< 1000
